Consider 3 compounds from patent publication US11071743B1, “Effective, non-toxic treatments for brain cancer” (priority 2015, dated 2021).

Data set [1] concerns lipid-encapsulated viruses. Conditions: in vitro; cited from earlier work.
The conditions of data set [2]: normal brains; cited from earlier work.
Data set [3] concerns glioblastoma. The note with it: in lab dishes; cited from earlier work.
For data set [4], the system named is glioblastoma multiforme. Nature of the data set: Example Two: treatment of a patient. Conditions: dose escalated to 22 mg/kg. The data set is classed as in vivo, human. On the procedure: A person living in Argentina was diagnosed with glioblastoma multiforme in January of 2014 and was immediately treated with surgery, chemotherapy, and radiation.
Shortly thereafter, near the middle of October, the patient began receiving the following regimen, alfacalcidol not being available: valganciclovir, 450 mg twice a day melatonin, 12 mg twice a day
BHT, 700 mg in the morning plus 350 mg at night resveratrol, 175 mg twice a day lycopene, 15 mg once a day
Honokiol, 250 mg twice a day metformin, 500 mg once a day, and vitamin D3, 2800 IU at night.
About two weeks later, bio-absorbable curcumin (from the Life Extension Foundation, described above), 400 mg twice a day, was added to the regimen, and circa November 4th, alfacalcidol was added to the regimen (3 micrograms in the morning).
The supply of alfacalcidol ran out at about that time. At the same time, sugar and other carbohydrate intake was restricted. In February, the dexamethasone dose was cut to 1 and 2 mg in the morning and evening, respectively. […] Alfacalcidol was resumed in April, at a double dose (3 micrograms twice a day) to compensate in part for the previous lapse, at which time the dexamethasone dose was cut to 1 mg twice a day. The tumor continued to show no progression in May, and the alfacalcidol dose was reduced to 2 micrograms twice a day in June, when the metformin dose was raised to […] in the morning. […]

For the compound `Cc1cc(C(C)(C)C)c(O)c(C(C)(C)C)c1` [BHT, butylated hydroxytoluene], in data set [1], the “killing of lipid-encapsulated viruses” value is recorded as “kill lipid-encapsulated viruses”. `Oc1ccc(C=Cc2cc(O)cc(O)c2)cc1` [Resveratrol]: in data set [2], the blood-brain barrier penetration result is “poorly if at all”. Besides, in data set [3], the anti-glioblastoma effects result is on record as “powerful anti-glioblastoma effects”.

With `O=C(O)C(Cl)Cl` [DCA, dichloroacetate], in data set [4], the “side effect of DCA” value is recorded as “numbness was experienced”.
